Experimental data from patent US20240116948A1, “PYRIDO OXAZINE DERIVATIVES AS ALK5 INHIBITORS” (CHIESI FARMACEUTICI S.P.A., priority 2020, published 2024).

target: human ALK5 (Homo sapiens (Human), UniProt P36897); assay: ADP-GLO Kinases assay, inhibition of ALK5 kinase activity; assay type: biochemical; conditions: Table 12; compounds classified in term of potency; ATP at Km, 25° C.; read-out: ALK5 IC50
Experimental: The enzymatic activity of compounds of the present invention was monitored measuring the formation of ADP using the ADP-GLO Kinases assay. Following the incubation of the purified enzyme, a substrate and ATP, the produced ADP was converted into ATP, which in turn was converted into light by Ultra-Glo Luciferase. The luminescent signal positively correlated with ADP amount and kinase activity. Briefly, the kinase reaction was performed by incubating 2.6 nM of the purified, commercially available human ALK5 (recombinant TGF 31 N-term GST-tagged, 80-end), a final concentration of TGFβ1 peptide 94.5 μM (Promega, T36-58) and ultra-pure ATP (Promega V915B). The ATP concentration was set at the Km value (concentration of substrate which permits the enzyme to achieve half maximal velocity (Vmax)) of ALK5 (5 μM). All reactions/incubations were performed at 25° C. Compound and ALK5 kinase were mixed and incubated for 15 mins. Reactions were initiated by addition of ATP at a final concentration in the assay of […]. After an incubation of 150 min, the reaction was stopped, and ADP production detected with ADP-Glo kit according to manufacturer's indications. The assay was performed in 384-well format and was validated using a selection of reference compounds that was tested in 11 point concentration-response curve.
Compounds of the examples C1 and C2 were tested in the same in vitro assay described above.

human ALK5, sequence (P36897 80-503 limits assumed): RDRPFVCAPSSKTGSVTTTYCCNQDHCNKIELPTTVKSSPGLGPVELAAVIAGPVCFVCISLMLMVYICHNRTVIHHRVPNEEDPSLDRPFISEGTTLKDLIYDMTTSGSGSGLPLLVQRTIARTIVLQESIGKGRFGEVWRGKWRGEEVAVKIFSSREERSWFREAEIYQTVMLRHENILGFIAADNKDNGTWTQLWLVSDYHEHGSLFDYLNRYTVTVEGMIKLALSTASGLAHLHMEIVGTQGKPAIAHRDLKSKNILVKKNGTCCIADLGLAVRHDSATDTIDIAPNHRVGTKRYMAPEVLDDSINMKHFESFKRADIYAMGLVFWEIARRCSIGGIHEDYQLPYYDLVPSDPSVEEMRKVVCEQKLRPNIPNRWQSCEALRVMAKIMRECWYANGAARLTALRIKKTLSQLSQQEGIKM

SMILES | IC50
CNC(=O)c1cncc(-c2cc(-c3cc(Cl)ccc3F)nc3c2OCCN3)c1 [Example 7, 5-[6-(5-chloro-2-fluorophenyl)-2H,3H,4H-pyrido[3,2-b][1,4]oxazin-8-yl]-N-methylpyridine-3-carboxamide] | 5 to 10 nM
Fc1ccc(Cl)cc1-c1cc(-c2cnc3[nH]cnc3c2)c2c(n1)NCCO2 [Example 14, 6-(5-chloro-2-fluorophenyl)-8-{3H-imidazo[4,5-b]pyridin-6-yl}-2H,3H,4H-pyrido[3,2-b][1,4]oxazine] | 5 to 10 nM
Fc1ccc(Cl)cc1-c1cc(-c2cnc3[nH]ccc3c2)c2c(n1)NCCO2 [Example 13, 6-(5-chloro-2-fluorophenyl)-8-{1H-pyrrolo[2,3-b]pyridin-5-yl}-2H,3H,4H-pyrido[3,2-b][1,4]oxazine] | 5 to 10 nM
NC(=O)c1cncc(-c2cc(-c3cc(Cl)ccc3F)nc3c2OCCN3)c1 [Example 6, 5-[6-(5-chloro-2-fluorophenyl)-2H,3H,4H-pyrido[3,2-b][1,4]oxazin-8-yl]pyridine-3-carboxamide] | 1 to 5 nM
CN(C)CCCNc1cncc(-c2cc(-c3cc(Cl)ccc3F)nc3c2OCCN3)c1 [Example 30, 5-[6-(5-chloro-2-fluorophenyl)-2H,3H,4H-pyrido[3,2-b][1,4]oxazin-8-yl]-N-[3-(dimethylamino)propyl]pyridin-3-amine] | 1 to 5 nM
COC(=O)c1cncc(-c2cc(-c3cccc(C)n3)nc3c2OCCN3)c1 [Example 39, Methyl 5-[6-(6-methylpyridin-2-yl)-2H,3H,4H-pyrido[3,2-b][1,4]oxazin-8-yl]pyridine-3-carboxylate] | 5 to 10 nM
O=C(CCN(CCO)CCO)Nc1cncc(-c2cc(-c3cc(Cl)ccc3F)nc3c2OCCN3)c1 [Example 43, 3-[bis(2-hydroxyethyl)amino]-N-{5-[6-(5-chloro-2-fluorophenyl)-2H,3H,4H-pyrido[3,2-b][1,4]oxazin-8-yl]pyridin-3-yl}propanamide] | 1 to 5 nM
Nc1cncc(-c2cc(-c3cc(Cl)ccc3F)nc3c2OCCN3)c1 [Example 5, 5-[6-(5-chloro-2-fluorophenyl)-2H,3H,4H-pyrido[3,2-b][1,4]oxazin-8-yl]pyridin-3-amine] | 1 to 5 nM
CN1CCC(COc2cncc(-c3cc(-c4cc(Cl)ccc4F)nc4c3OCCN4)c2)CC1 [Example 42, 3-[6-(5-chloro-2-fluorophenyl)-2H,3H,4H-pyrido[3,2-b][1,4]oxazin-8-yl]-5-[(1-methylpiperidin-4-yl)methoxy]pyridine] | 1 to 5 nM
O=C(CCCN1CCNCC1)Nc1cncc(-c2cc(-c3cc(Cl)ccc3F)nc3c2OCCN3)c1 [Example 33, N-{5-[6-(5-chloro-2-fluorophenyl)-2H,3H,4H-pyrido[3,2-b][1,4]oxazin-8-yl]pyridin-3-yl}-4-(piperazin-1-yl)butanamide] | 1 to 5 nM
COC(=O)CN(C)CCC(=O)Nc1cncc(-c2cc(-c3cc(Cl)ccc3F)nc3c2OCCN3)c1 [Example 48, Methyl 2-{[2-({5-[6-(5-chloro-2-fluorophenyl)-2H,3H,4H-pyrido[3,2-b][1,4]oxazin-8-yl]pyridin-3-yl}carbamoyl)ethyl](methyl)amino}acetate] | 5 to 10 nM
Cc1csc(-c2cc(-c3cncc4ccccc34)c3c(n2)NCCO3)n1 [Example 4, 4-[6-(4-methyl-1,3-thiazol-2-yl)-2H,3H,4H-pyrido[3,2-b][1,4]oxazin-8-yl]isoquinoline] | 1 to 5 nM

same assay, conditions: Table 13; comparative examples, same in vitro assay; read-out: ALK5 IC50

SMILES | IC50
Oc1ccc(-c2cc(-c3cc(Cl)ccc3F)nc3c2OCCN3)cc1 [Example C2, 4-[6-(5-chloro-2-fluorophenyl)-2H,3H,4H-pyrido[3,2-b][1,4]oxazin-8-yl]phenol] | 1710 nM

same assay, conditions: summary statements in running text; read-out: IC50 / potency on ALK5

SMILES | IC50
Oc1ccc(-c2cc(-c3cc(Cl)ccc3F)nc3c2OCCN3)cc1 [Example C2, 4-[6-(5-chloro-2-fluorophenyl)-2H,3H,4H-pyrido[3,2-b][1,4]oxazin-8-yl]phenol] | > 1700 nM
